Data published in patent publication US8143263B2, “Therapeutic agents” (Astrazeneca AB, priority 2008, dated 2012).

Each molecule was assayed against T1, recombinant human pancreatic GLK (Homo sapiens, UniProt P35557) (assay: biochemical).
T1 sequence (P35557 1-465): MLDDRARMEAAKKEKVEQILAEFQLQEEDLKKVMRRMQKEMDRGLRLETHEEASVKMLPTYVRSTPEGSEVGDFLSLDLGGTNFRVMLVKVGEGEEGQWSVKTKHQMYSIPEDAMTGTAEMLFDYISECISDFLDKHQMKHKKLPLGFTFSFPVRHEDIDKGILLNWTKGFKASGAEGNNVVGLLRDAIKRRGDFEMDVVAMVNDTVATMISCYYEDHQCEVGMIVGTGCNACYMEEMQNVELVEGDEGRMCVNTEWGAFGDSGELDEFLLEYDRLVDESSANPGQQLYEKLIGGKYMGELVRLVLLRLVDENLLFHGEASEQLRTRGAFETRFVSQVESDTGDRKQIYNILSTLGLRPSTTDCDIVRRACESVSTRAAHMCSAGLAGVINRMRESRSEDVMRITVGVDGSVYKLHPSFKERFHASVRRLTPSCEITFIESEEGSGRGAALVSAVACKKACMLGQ
`O=C(Nc1ccc(F)cn1)[C@H](CN1CC(O)C1)Oc1ncnc2c1cnn2-c1c(F)cccc1Cl` [Example 229, (2S)-2-[1-(2-chloro-6-fluoro-phenyl)pyrazolo[3,4-d]pyrimidin-4-yl]oxy-N-(5-fluoro-2-pyridyl)-3-(3-hydroxyazetidin-1-yl)propanamide] showed an EC50 of 110 nM. For `O=C(Nc1ccc(F)cn1)[C@H](CN1CC(O)C1)Oc1ncnc2c1cnn2-c1c(Cl)cccc1Cl` [Example 230, (2S)-2-[1-(2,6-dichlorophenyl)pyrazolo[3,4-d]pyrimidin-4-yl]oxy-N-(5-fluoro-2-pyridyl)-3-(3-hydroxyazetidin-1-yl)propanamide], the EC50 was 110 nM. `C[C@H](CO)OC[C@H](Oc1ncnc2c1cnn2-c1c(Cl)cccc1C#N)C(=O)Nc1ccccn1` [Example 231, (2S)-2-[1-(2-chloro-6-cyano-phenyl)pyrazolo[3,4-d]pyrimidin-4-yl]oxy-3-[(1R)-2-hydroxy-1-methyl-ethoxy]-N-(2-pyridyl)propanamide] showed an EC50 of 260 nM. `Cc1ccc(NC(=O)[C@H](CO[C@H](C)CO)Oc2ncnc3c2cnn3-c2ncccc2Cl)nc1` [Example 232, (2S)-2-[1-(3-chloro-2-pyridyl)pyrazolo[3,4-d]pyrimidin-4-yl]oxy-3-[(1R)-2-hydroxy-1-methyl-ethoxy]-N-(5-methyl-2-pyridyl)propanamide] was tested, and the EC50 was 540 nM. `O=C(Nc1ccccn1)[C@H](CN1CC(O)C1)Oc1ncnc2c1cnn2-c1c(Cl)cccc1Cl` [Example 233, (2S)-2-[1-(2,6-dichlorophenyl)pyrazolo[3,4-d]pyrimidin-4-yl]oxy-3-(3-hydroxyazetidin-1-yl)-N-(2-pyridyl)propanamide] showed an EC50 of 210 nM. `N#Cc1ccc(NC(=O)[C@H](CN2CC(O)C2)Oc2ncnc3c2cnn3-c2c(Cl)cccc2Cl)nc1` [Example 234, (2S)—N-(5-cyano-2-pyridyl)-2-[1-(2,6-dichlorophenyl)pyrazolo[3,4-d]pyrimidin-4-yl]oxy-3-(3-hydroxyazetidin-1-yl)propanamide] was tested, and the EC50 was 210 nM. Molecule `N#Cc1ccc(NC(=O)[C@H](COCCO)Oc2ncnc3c2cnn3-c2c(Cl)cccc2Cl)nc1` [Example 235, (2S)—N-(5-cyano-2-pyridyl)-2-[1-(2,6-dichlorophenyl)pyrazolo[3,4-d]pyrimidin-4-yl]oxy-3-(2-hydroxyethoxy)propanamide] has an EC50 of 400 nM. In the case of `C[C@H](CO)OC[C@H](Oc1ncnc2c1cnn2-c1c(C#N)cccc1C#N)C(=O)Nc1ccc(Cl)cn1` [Example 236, (2S)—N-(5-chloro-2-pyridyl)-2-[1-(2,6-dicyanophenyl)pyrazolo[3,4-d]pyrimidin-4-yl]oxy-3-[(1R)-2-hydroxy-1-methyl-ethoxy]propanamide], the EC50 is reported as 740 nM. For `N#Cc1cccc(Cl)c1-n1ncc2c(O[C@@H](COCCO)C(=O)Nc3ccc(F)cn3)ncnc21` [Example 237, (2S)-2-[1-(2-chloro-6-cyano-phenyl)pyrazolo[3,4-d]pyrimidin-4-yl]oxy-N-(5-fluoro-2-pyridyl)-3-(2-hydroxyethoxy)propanamide], the EC50 was 470 nM. `N#Cc1cccc(Cl)c1-n1ncc2c(O[C@@H](COCCO)C(=O)Nc3ccccn3)ncnc21` [Example 238, (2S)-2-[1-(2-chloro-6-cyano-phenyl)pyrazolo[3,4-d]pyrimidin-4-yl]oxy-3-(2-hydroxyethoxy)-N-(2-pyridyl)propanamide] showed an EC50 of 420 nM. `Cc1cnc(NC(=O)[C@H](CN2CC(O)C2)Oc2ncnc3c2cnn3-c2c(Cl)cccc2C#N)cn1` [Example 239, (2S)-2-[1-(2-chloro-6-cyano-phenyl)pyrazolo[3,4-d]pyrimidin-4-yl]oxy-3-(3-hydroxyazetidin-1-yl)-N-(5-methylpyrazin-2-yl)propanamide] was tested, and the EC50 was 490 nM. Work on `N#Cc1cccc(Cl)c1-n1ncc2c(O[C@@H](CN3CC(O)C3)C(=O)Nc3ccc(Cl)cn3)ncnc21` [Example 240, (2S)-2-[1-(2-chloro-6-cyano-phenyl)pyrazolo[3,4-d]pyrimidin-4-yl]oxy-N-(5-chloro-2-pyridyl)-3-(3-hydroxyazetidin-1-yl)propanamide] yielded an EC50 of 450 nM. `O=C(Nc1ccccn1)[C@H](CN1CC(O)C1)Oc1ncnc2c1cnn2-c1ncccc1Cl` [Example 241, (2S)-2-[1-(3-chloro-2-pyridyl)pyrazolo[3,4-d]pyrimidin-4-yl]oxy-3-(3-hydroxyazetidin-1-yl)-N-(2-pyridyl)propanamide] showed an EC50 of 350 nM. In the case of `N#Cc1cccc(Cl)c1-n1ncc2c(O[C@@H](CN3CC(O)C3)C(=O)Nc3ccc(F)cn3)ncnc21` [Example 242, (2S)-2-[1-(2-chloro-6-cyano-phenyl)pyrazolo[3,4-d]pyrimidin-4-yl]oxy-N-(5-fluoro-2-pyridyl)-3-(3-hydroxyazetidin-1-yl)propanamide], the EC50 is reported as 220 nM. With `O=C(Nc1ccc(F)cn1)[C@H](CN1CC(O)C1)Oc1ncnc2c1cnn2-c1ncccc1Cl` [Example 243, (2S)-2-[1-(3-chloro-2-pyridyl)pyrazolo[3,4-d]pyrimidin-4-yl]oxy-N-(5-fluoro-2-pyridyl)-3-(3-hydroxyazetidin-1-yl)propanamide] the EC50 was 570 nM. `O=C(Nc1ccc(F)cn1)[C@H](COCCO)Oc1ncnc2c1cnn2-c1c(F)cccc1Cl` [Example 244, (2S)-2-[1-(2-chloro-6-fluoro-phenyl)pyrazolo[3,4-d]pyrimidin-4-yl]oxy-N-(5-fluoro-2-pyridyl)-3-(2-hydroxyethoxy)propanamide] gave an EC50 of 330 nM. `C[C@H](CO)OC[C@H](Oc1ncnc2c1cnn2-c1ccccc1Cl)C(=O)Nc1ccc(F)cn1` [Example 245, (2S)-2-[1-(2-chlorophenyl)pyrazolo[3,4-d]pyrimidin-4-yl]oxy-N-(5-fluoro-2-pyridyl)-3-[(1R)-2-hydroxy-1-methyl-ethoxy]propanamide] showed an EC50 of 470 nM. Molecule `C[C@H](CO)OC[C@H](Oc1ncnc2c1cnn2-c1c(Cl)cccc1C#N)C(=O)Nc1ccc(F)cn1` [Example 246, (2S)-2-[1-(2-chloro-6-cyano-phenyl)pyrazolo[3,4-d]pyrimidin-4-yl]oxy-N-(5-fluoro-2-pyridyl)-3-[(1R)-2-hydroxy-1-methyl-ethoxy]propanamide] has an EC50 of 220 nM. Work on `Cc1cnc(NC(=O)[C@H](CO[C@H](C)CO)Oc2ncnc3c2cnn3-c2ccccc2Cl)cn1` [Example 247, (2S)-2-[1-(2-chlorophenyl)pyrazolo[3,4-d]pyrimidin-4-yl]oxy-3-[(1R)-2-hydroxy-1-methyl-ethoxy]-N-(5-methylpyrazin-2-yl)propanamide] yielded an EC50 of 590 nM. With `O=C(Nc1ccc(F)cn1)[C@H](COCCO)Oc1ncnc2c1cnn2-c1ccccc1Cl` [Example 248, (2S)-2-[1-(2-chlorophenyl)pyrazolo[3,4-d]pyrimidin-4-yl]oxy-N-(5-fluoro-2-pyridyl)-3-(2-hydroxyethoxy)propanamide] the EC50 was 640 nM. `Cc1cnc(NC(=O)[C@H](CN2CC(O)C2)Oc2ncnc3c2cnn3-c2ncccc2Cl)s1` [Example 249, (2S)-2-[1-(3-chloro-2-pyridyl)pyrazolo[3,4-d]pyrimidin-4-yl]oxy-3-(3-hydroxyazetidin-1-yl)-N-(5-methylthiazol-2-yl)propanamide] was tested, and the EC50 was 590 nM. In the case of `O=C(Nc1ccccn1)[C@H](COCCO)Oc1ncnc2c1cnn2-c1c(Cl)cccc1Cl` [Example 250, (2S)-2-[1-(2,6-dichlorophenyl)pyrazolo[3,4-d]pyrimidin-4-yl]oxy-3-(2-hydroxyethoxy)-N-(2-pyridyl)propanamide], the EC50 is reported as 230 nM. `C[C@H](CO)OC[C@H](Oc1ncnc2c1cnn2-c1c(Cl)cccc1C#N)C(=O)Nc1ccc(C#N)cn1` [Example 251, (2S)-2-[1-(2-chloro-6-cyano-phenyl)pyrazolo[3,4-d]pyrimidin-4-yl]oxy-N-(5-cyano-2-pyridyl)-3-[(1R)-2-hydroxy-1-methyl-ethoxy]propanamide] was tested, and the EC50 was 350 nM. `C[C@H](CO)OC[C@H](Oc1ncnc2c1cnn2-c1ccccc1Cl)C(=O)Nc1ccc(C#N)cn1` [Example 252, (2S)-2-[1-(2-chlorophenyl)pyrazolo[3,4-d]pyrimidin-4-yl]oxy-N-(5-cyano-2-pyridyl)-3-[(1R)-2-hydroxy-1-methyl-ethoxy]propanamide] gave an EC50 of 450 nM.
